PubChem BioAssay (NCI)
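Growth conditions: 96-well plates. Treatment: test compound, 48 hours, 5 concentrations. Analysis: linear interpolation between bracketing concentrations; unreached endpoints set to highest concentration. The concentration for full growth arrest is given as TGI.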

Assays:
Experiment in all cases: DTP human tumour cell line panel, 48 h
NCI-H23 lung = test system: NCI-H23 lung
BT-549 breast = test system: BT-549 breast
CCRF-CEM leukemia = test system: CCRF-CEM leukemia
IGROV1 ovarian = test system: IGROV1 ovarian
SK-MEL-2 melanoma = test system: SK-MEL-2 melanoma
MOLT-4 leukemia = test system: MOLT-4 leukemia
SNB-19 CNS = test system: SNB-19 CNS
EKVX NSCLC = test system: EKVX NSCLC
M14 melanoma = test system: M14 melanoma
A498 renal = test system: A498 renal
SR leukemia = test system: SR leukemia
HCT-15 colon = test system: HCT-15 colon
HT29 colon = test system: HT29 colon
MCF7 breast = test system: MCF7 breast
MDA-N = test system: MDA-N
HS 578T breast = test system: HS 578T breast
SK-OV-3 ovarian = test system: SK-OV-3 ovarian
A549 NSCLC = test system: A549 NSCLC
SN12C renal = test system: SN12C renal
TK-10 renal = test system: TK-10 renal
DU-145 prostate = test system: DU-145 prostate
OVCAR-5 ovarian = test system: OVCAR-5 ovarian
MDA-MB-231 breast = test system: MDA-MB-231 breast
OVCAR-4 ovarian = test system: OVCAR-4 ovarian
UO-31 renal = test system: UO-31 renal
SK-MEL-5 melanoma = test system: SK-MEL-5 melanoma
SF-268 CNS = test system: SF-268 CNS
U251 CNS = test system: U251 CNS
786-0 renal = test system: 786-0 renal
HOP-62 NSCLC = test system: HOP-62 NSCLC
NCI-H460 lung = test system: NCI-H460 lung
SW-620 colon = test system: SW-620 colon
NCI-H522 lung = test system: NCI-H522 lung
SNB-75 CNS = test system: SNB-75 CNS
K-562 leukemia = test system: K-562 leukemia
T-47D breast = test system: T-47D breast
COLO 205 colon = test system: COLO 205 colon
NCI-H226 lung = test system: NCI-H226 lung
SK-MEL-28 melanoma = test system: SK-MEL-28 melanoma
HL-60(TB) leukemia = test system: HL-60(TB) leukemia
ACHN renal = test system: ACHN renal
RPMI-8226 leukemia = test system: RPMI-8226 leukemia
HCC-2998 colon = test system: HCC-2998 colon
LOX IMVI melanoma = test system: LOX IMVI melanoma
OVCAR-8 ovarian = test system: OVCAR-8 ovarian
RXF 393 renal = test system: RXF 393 renal
PC-3 prostate = test system: PC-3 prostate
UACC-62 melanoma = test system: UACC-62 melanoma
OVCAR-3 ovarian = test system: OVCAR-3 ovarian
SF-295 CNS = test system: SF-295 CNS
MALME-3M melanoma = test system: MALME-3M melanoma
SF-539 CNS = test system: SF-539 CNS
NCI/ADR-RES ovarian = test system: NCI/ADR-RES ovarian
UACC-257 melanoma = test system: UACC-257 melanoma
HOP-92 NSCLC = test system: HOP-92 NSCLC
MDA-MB-435 = test system: MDA-MB-435
CAKI-1 renal = test system: CAKI-1 renal
HCT-116 colon = test system: HCT-116 colon
KM12 colon = test system: KM12 colon

For `CNc1ccc(Cl)cc1S(=O)(=O)c1ccccc1[N+](=O)[O-]`, the TGI (NCI-H23 lung) was greater than 100 µM, the TGI (BT-549 breast) was greater than 100 µM and the TGI (CCRF-CEM leukemia) was greater than 100 µM. It also gave a TGI (IGROV1 ovarian) greater than 100 µM, a TGI (SK-MEL-2 melanoma) greater than 100 µM and a TGI (MOLT-4 leukemia) greater than 100 µM. The TGI (SNB-19 CNS) was greater than 100 µM, the TGI (EKVX NSCLC) was greater than 100 µM and the TGI (M14 melanoma) was greater than 100 µM. For the same molecule, the TGI (A498 renal) was greater than 100 µM, the TGI (SR leukemia) was greater than 100 µM and the TGI (HCT-15 colon) was greater than 100 µM. The TGI (HT29 colon) was greater than 100 µM, the TGI (MCF7 breast) was greater than 100 µM and the TGI (MDA-N) was greater than 100 µM. For the same molecule, the TGI (HS 578T breast) was greater than 100 µM, the TGI (SK-OV-3 ovarian) was greater than 100 µM and the TGI (A549 NSCLC) was greater than 100 µM. The TGI (SN12C renal) was greater than 100 µM, the TGI (TK-10 renal) was greater than 100 µM and the TGI (DU-145 prostate) was greater than 100 µM. For the same molecule, the TGI (OVCAR-5 ovarian) was greater than 100 µM, the TGI (MDA-MB-231 breast) was greater than 100 µM and the TGI (OVCAR-4 ovarian) was greater than 100 µM. The TGI (UO-31 renal) was greater than 100 µM, the TGI (SK-MEL-5 melanoma) was greater than 100 µM and the TGI (SF-268 CNS) was greater than 100 µM. The TGI (U251 CNS) was greater than 100 µM, the TGI (786-0 renal) was greater than 100 µM and the TGI (HOP-62 NSCLC) was greater than 100 µM. For the same molecule, the TGI (NCI-H460 lung) was greater than 100 µM, the TGI (SW-620 colon) was greater than 100 µM and the TGI (NCI-H522 lung) was greater than 100 µM. It also gave a TGI (SNB-75 CNS) greater than 100 µM, a TGI (K-562 leukemia) greater than 100 µM and a TGI (T-47D breast) greater than 100 µM. For the same molecule, the TGI (COLO 205 colon) was greater than 100 µM, the TGI (NCI-H226 lung) was greater than 100 µM and the TGI (SK-MEL-28 melanoma) was greater than 100 µM. For the same molecule, the TGI (HL-60(TB) leukemia) was greater than 100 µM, the TGI (ACHN renal) was greater than 100 µM and the TGI (RPMI-8226 leukemia) was greater than 100 µM. The TGI (HCC-2998 colon) was greater than 100 µM, the TGI (LOX IMVI melanoma) was greater than 100 µM and the TGI (OVCAR-8 ovarian) was greater than 100 µM. The TGI (RXF 393 renal) was greater than 100 µM, the TGI (PC-3 prostate) was greater than 100 µM and the TGI (UACC-62 melanoma) was greater than 100 µM. The TGI (OVCAR-3 ovarian) was greater than 100 µM, the TGI (SF-295 CNS) was greater than 100 µM and the TGI (MALME-3M melanoma) was greater than 100 µM. For the same molecule, the TGI (SF-539 CNS) was greater than 100 µM and the TGI (NCI/ADR-RES ovarian) was greater than 100 µM.
Work on `OC(c1cc(-c2ccccc2)nc2c1ccc1ccccc12)C1CCCCN1` (stereo not given) yielded a TGI (UACC-257 melanoma) of 3.41 µM, a TGI (BT-549 breast) of 25 µM and a TGI (IGROV1 ovarian) of 2.98 µM. It also gave a TGI (SK-MEL-2 melanoma) of 3.17 µM, a TGI (MOLT-4 leukemia) greater than 100 µM and a TGI (EKVX NSCLC) of 5.4 µM. The TGI (M14 melanoma) was 3.22 µM, the TGI (A498 renal) was 3.76 µM and the TGI (MDA-N) was 2.97 µM. It also gave a TGI (HS 578T breast) of 3.53 µM, a TGI (SK-OV-3 ovarian) of 3.32 µM and a TGI (SN12C renal) of 3.1 µM. For the same molecule, the TGI (TK-10 renal) was 3.5 µM, the TGI (DU-145 prostate) was 3.45 µM and the TGI (MDA-MB-231 breast) was 3.36 µM. The TGI (HOP-92 NSCLC) was 3.56 µM, the TGI (UO-31 renal) was 2.45 µM and the TGI (SK-MEL-5 melanoma) was 8.55 µM. It also gave a TGI (SF-268 CNS) of 2.88 µM, a TGI (U251 CNS) of 3.15 µM and a TGI (786-0 renal) of 3.04 µM. It also gave a TGI (HOP-62 NSCLC) of 3.24 µM, a TGI (NCI-H460 lung) of 3.62 µM and a TGI (MDA-MB-435) of 3.33 µM. For the same molecule, the TGI (SNB-75 CNS) was 3.43 µM, the TGI (K-562 leukemia) was greater than 100 µM and the TGI (NCI-H226 lung) was greater than 100 µM. For the same molecule, the TGI (SK-MEL-28 melanoma) was 3.18 µM, the TGI (CAKI-1 renal) was 4.04 µM and the TGI (HL-60(TB) leukemia) was 1.13 µM. For the same molecule, the TGI (ACHN renal) was 3.26 µM, the TGI (HCC-2998 colon) was 0.586 µM and the TGI (RXF 393 renal) was 3.03 µM. The TGI (PC-3 prostate) was 3.07 µM, the TGI (UACC-62 melanoma) was 3.46 µM and the TGI (OVCAR-3 ovarian) was 3.29 µM. It also gave a TGI (SF-295 CNS) of 3.44 µM, a TGI (MALME-3M melanoma) of 3.19 µM and a TGI (HCT-116 colon) of 2.92 µM. For the same molecule, the TGI (KM12 colon) was 3.35 µM.
For `CCCC(=O)Nc1cc(/C=C/C(=O)N2CC(CCl)c3ccc(N)cc32)n(C)c1` (stereo not given), the TGI (NCI-H23 lung) was 0.809 µM, the TGI (BT-549 breast) was 0.813 µM and the TGI (SK-MEL-2 melanoma) was 0.572 µM. For the same molecule, the TGI (SNB-19 CNS) was greater than 43.2 µM, the TGI (M14 melanoma) was greater than 100 µM and the TGI (A498 renal) was 0.0523 µM. For the same molecule, the TGI (SR leukemia) was 0.594 µM, the TGI (HCT-15 colon) was greater than 100 µM and the TGI (HT29 colon) was greater than 100 µM. For the same molecule, the TGI (MDA-N) was 0.675 µM, the TGI (SK-OV-3 ovarian) was greater than 100 µM and the TGI (A549 NSCLC) was greater than 100 µM. The TGI (SN12C renal) was 6.62 µM, the TGI (TK-10 renal) was 0.471 µM and the TGI (DU-145 prostate) was 2.77 µM. For the same molecule, the TGI (OVCAR-5 ovarian) was greater than 100 µM, the TGI (OVCAR-4 ovarian) was 0.697 µM and the TGI (SF-268 CNS) was greater than 100 µM. The TGI (U251 CNS) was greater than 40.9 µM, the TGI (786-0 renal) was 2.92 µM and the TGI (HOP-62 NSCLC) was greater than 100 µM. For the same molecule, the TGI (NCI-H460 lung) was 0.796 µM, the TGI (SW-620 colon) was greater than 100 µM and the TGI (NCI-H522 lung) was 0.0834 µM. The TGI (K-562 leukemia) was greater than 100 µM, the TGI (T-47D breast) was 0.601 µM and the TGI (COLO 205 colon) was 0.3 µM. It also gave a TGI (NCI-H226 lung) greater than 100 µM, a TGI (CAKI-1 renal) of 0.385 µM and a TGI (HCC-2998 colon) of 0.34 µM. For the same molecule, the TGI (LOX IMVI melanoma) was greater than 100 µM, the TGI (PC-3 prostate) was greater than 100 µM and the TGI (UACC-62 melanoma) was 0.304 µM. For the same molecule, the TGI (OVCAR-3 ovarian) was greater than 100 µM, the TGI (MALME-3M melanoma) was 0.507 µM and the TGI (SF-539 CNS) was 0.429 µM. It also gave a TGI (HCT-116 colon) of 14.1 µM.
